Data as given in patent publication US7550483B2, “Amorphous salt of 4-(3-chloro-4-(cyclopropylaminocarbonyl)aminophenoxy)-7-methoxy-6-quinolinecarboxamide and process for preparing the same” (Eisai R&D Management Co., Ltd., priority 2005, dated 2009).

Legend:
[1] = Test for measuring dissolution rate (rotating disk method); assay type: physicochemical; details: 2nd fluid pH 6.8, 500 mL, 37° C., 50 rpm, 1 cm^2
Experimental: The dissolution rates of the following crystal and amorphous compounds were measured under the conditions described below by the rotating disk method (see, J. H. Woods et al., J. Pharm. Soc., 54, 1068 (1955)): a crystalline form of the free carboxamide obtained in Preparation Example 1, an amorphous form of the methanesulfonate of the carboxamide obtained in Example 1 and an amorphous form of the ethanesulfonate obtained in Example 2. The dissolution rates were calculated based on a range in which linearity was maintained in the relation between concentration and time at the initial stage of dissolution.
(Rotating disk method conditions)
Solvent: “2nd fluid” (pH 6.8, 500 mL) as described in Japanese Pharmacopoeia 14th Edition, General Tests (disintegration test)
Disk rotation speed: 50 rpm
Area of powder contacting with solvent on disk: 1 cm^2
Sampling amount: approx. 1 mL
Column: YMC Pack ProC18 (YMC Co., Ltd.; inner diameter 4.6 mm, column length 150 mm, particle size 5 μm)
Column temperature: 40° C.
Concentration of solution B: 20%
Detection: ultraviolet absorbance photometer (wavelength: 252 nm)
Temperature of auto sampler: 25° C.

angiogenesis = details: free-form product; WO02/32872 Example 368; cited from earlier work
c-Kit kinase = c-Kit kinase (Homo sapiens, UniProt P10721); details: AACR 2004 proceedings; WO2004/080462; cited from earlier work
Chain of c-Kit kinase (P10721 26-976): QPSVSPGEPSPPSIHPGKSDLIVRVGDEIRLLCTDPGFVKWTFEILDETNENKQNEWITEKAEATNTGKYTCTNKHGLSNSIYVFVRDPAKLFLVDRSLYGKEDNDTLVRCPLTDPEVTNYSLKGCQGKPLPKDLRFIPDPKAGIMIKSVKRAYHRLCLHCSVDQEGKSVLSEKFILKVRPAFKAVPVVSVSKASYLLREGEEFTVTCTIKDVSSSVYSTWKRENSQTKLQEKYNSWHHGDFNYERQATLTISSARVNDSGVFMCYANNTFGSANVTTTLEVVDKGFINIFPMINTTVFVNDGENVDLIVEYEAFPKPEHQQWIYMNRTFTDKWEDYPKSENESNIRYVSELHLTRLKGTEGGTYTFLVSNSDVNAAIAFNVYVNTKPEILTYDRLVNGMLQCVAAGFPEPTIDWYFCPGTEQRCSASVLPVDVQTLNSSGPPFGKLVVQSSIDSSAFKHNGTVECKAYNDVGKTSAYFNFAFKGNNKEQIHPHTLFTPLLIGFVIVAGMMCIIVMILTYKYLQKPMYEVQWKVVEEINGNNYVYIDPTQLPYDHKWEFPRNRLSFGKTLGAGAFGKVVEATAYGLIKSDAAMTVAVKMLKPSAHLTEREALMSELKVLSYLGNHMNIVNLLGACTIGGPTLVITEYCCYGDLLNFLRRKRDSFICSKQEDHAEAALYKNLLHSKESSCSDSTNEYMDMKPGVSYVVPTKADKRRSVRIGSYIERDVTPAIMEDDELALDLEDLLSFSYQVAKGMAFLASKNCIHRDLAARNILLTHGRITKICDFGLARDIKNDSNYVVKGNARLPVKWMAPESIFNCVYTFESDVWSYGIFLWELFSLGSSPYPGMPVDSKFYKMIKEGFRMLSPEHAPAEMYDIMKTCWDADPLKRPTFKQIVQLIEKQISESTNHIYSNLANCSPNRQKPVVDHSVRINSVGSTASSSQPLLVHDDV

Compound	dissolution rate [1]	angiogenesis inhibition (angiogenesis)	inhibitory action for c-Kit kinase (c-Kit kinase)
CCS(=O)(=O)O.COc1cc2nccc(Oc3ccc(NC(=O)NC4CC4)c(Cl)c3)c2cc1C(N)=O [esylate amorphous, An amorphous form of the ethanesulfonate of 4-(3-chloro-4-(cyclopropylaminocarbonyl)aminophenoxy)-7-methoxy-6-quinolinecarboxamide]	25.1 μg/min/cm^2	–	–
COc1cc2nccc(Oc3ccc(NC(=O)NC4CC4)c(Cl)c3)c2cc1C(N)=O [free form, 4-(3-chloro-4-(cyclopropylaminocarbonyl)aminophenoxy)-7-methoxy-6-quinolinecarboxamide]	1.1 μg/min/cm^2	excellent angiogenesis inhibition	strong inhibitory action
COc1cc2nccc(Oc3ccc(NC(=O)NC4CC4)c(Cl)c3)c2cc1C(N)=O.CS(=O)(=O)O [mesylate amorphous, An amorphous form of the methanesulfonate of 4-(3-chloro-4-(cyclopropylaminocarbonyl)aminophenoxy)-7-methoxy-6-quinolinecarboxamide]	22.7 μg/min/cm^2	–	–
